# Assay results taken from ChEMBL document CHEMBL5390253, “Discovery of Selective and Potent Macrocyclic CDK9 Inhibitors for the Treatment of Osimertinib-Resistant Non-Small-Cell Lung Cancer” (J Med Chem, 2023).
# Calls of active or inactive are those of the source. No cut-off for these calls is given here.
# Tests used:
# [1] = Downregulation of Mcl-1 in human NCI-H1975 cells at 500 nM relative to control; format: functional
# [2] = molecular target: CDK2/Cyclin A2 (Homo sapiens) (UniProt P24941+P20248); assay: Inhibition of CDK2/Cyclin A2 (unknown origin) at 100 nM preincubated for 10 mins followed by substrate addition and measured after 60 mins in presence of ATP by ADP-Glo reagent based assay relative to control; format: protein-complex assay; conditions: time 70.0 min
# [3] = molecular target: CDK9/cyclin T1 (Homo sapiens) (UniProt O60563+P50750); assay: Inhibition of CDK9/Cyclin-T1 (unknown origin) at 20 nM preincubated for 10 mins followed by substrate addition and measured after 60 mins in presence of ATP by ADP-Glo reagent based assay relative to control; format: protein-complex assay; conditions: time 70.0 min
# HCC827 [4] = assay: Antiproliferative activity against human HCC827 cells incubated for 72 hrs by MTT assay; format: functional, cell-based; conditions: HCC827, 72 h
# NCI-H1975 [5] = assay: Antiproliferative activity against human NCI-H1975 cells incubated for 72 hrs by MTT assay; format: functional, cell-based; conditions: NCI-H1975, 72 h
# CDK2/Cyclin A2 = CDK2/Cyclin A2 (Homo sapiens, UniProt P24941); assay: Inhibition of CDK2/Cyclin A2 (unknown origin) preincubated for 10 mins followed by substrate addition and measured after 60 mins in presence of ATP by ADP-Glo reagent based assay; format: protein-complex assay
# CDK9/cyclin T1 = CDK9/cyclin T1 (Homo sapiens, UniProt P50750); assay: Inhibition of CDK9/Cyclin-T1 (unknown origin) preincubated for 10 mins followed by substrate addition and measured after 60 mins in presence of ATP by ADP-Glo reagent based assay; format: protein-complex assay
# Sequence of CDK9/cyclin T1 (O60563 whole entry): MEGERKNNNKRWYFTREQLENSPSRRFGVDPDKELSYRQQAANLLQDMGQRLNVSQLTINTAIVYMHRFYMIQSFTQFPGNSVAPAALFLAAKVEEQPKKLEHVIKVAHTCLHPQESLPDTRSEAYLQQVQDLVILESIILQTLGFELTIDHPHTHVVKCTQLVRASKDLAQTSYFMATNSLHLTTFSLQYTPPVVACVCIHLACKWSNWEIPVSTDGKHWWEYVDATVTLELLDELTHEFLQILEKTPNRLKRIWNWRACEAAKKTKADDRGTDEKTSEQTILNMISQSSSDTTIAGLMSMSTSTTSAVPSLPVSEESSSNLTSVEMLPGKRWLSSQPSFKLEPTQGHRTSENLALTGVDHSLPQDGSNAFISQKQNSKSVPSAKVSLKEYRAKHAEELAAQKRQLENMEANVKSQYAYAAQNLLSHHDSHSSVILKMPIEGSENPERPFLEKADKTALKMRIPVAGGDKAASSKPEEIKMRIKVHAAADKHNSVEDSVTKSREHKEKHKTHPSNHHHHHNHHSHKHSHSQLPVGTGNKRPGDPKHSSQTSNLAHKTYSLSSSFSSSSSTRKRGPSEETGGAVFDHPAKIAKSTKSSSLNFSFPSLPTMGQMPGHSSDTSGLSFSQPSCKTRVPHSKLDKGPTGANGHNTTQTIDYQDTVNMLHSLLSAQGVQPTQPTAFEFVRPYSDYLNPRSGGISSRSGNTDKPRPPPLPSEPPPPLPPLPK
# Sequence of CDK9/cyclin T1 (P50750 whole entry): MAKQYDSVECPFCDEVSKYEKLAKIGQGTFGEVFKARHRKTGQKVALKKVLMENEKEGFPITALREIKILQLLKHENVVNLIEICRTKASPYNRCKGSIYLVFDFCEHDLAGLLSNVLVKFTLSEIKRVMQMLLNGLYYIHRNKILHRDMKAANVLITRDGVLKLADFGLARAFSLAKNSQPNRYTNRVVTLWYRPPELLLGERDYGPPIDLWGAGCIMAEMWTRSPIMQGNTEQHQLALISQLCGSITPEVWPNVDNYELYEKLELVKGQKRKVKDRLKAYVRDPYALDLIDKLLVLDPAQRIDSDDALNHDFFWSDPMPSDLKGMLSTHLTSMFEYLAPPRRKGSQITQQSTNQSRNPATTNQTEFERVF
# [6] = molecular target: Receptor-type tyrosine-protein kinase FLT3 (Homo sapiens) (UniProt P36888); assay: Inhibition of FLT3 (unknown origin) at 100 nM preincubated for 10 mins followed by substrate addition and measured after 60 mins in presence of ATP by ADP-Glo reagent based assay relative to control; conditions: time 70.0 min
# Sequence of Receptor-type tyrosine-protein kinase FLT3 (Homo sapiens) (P36888 whole entry): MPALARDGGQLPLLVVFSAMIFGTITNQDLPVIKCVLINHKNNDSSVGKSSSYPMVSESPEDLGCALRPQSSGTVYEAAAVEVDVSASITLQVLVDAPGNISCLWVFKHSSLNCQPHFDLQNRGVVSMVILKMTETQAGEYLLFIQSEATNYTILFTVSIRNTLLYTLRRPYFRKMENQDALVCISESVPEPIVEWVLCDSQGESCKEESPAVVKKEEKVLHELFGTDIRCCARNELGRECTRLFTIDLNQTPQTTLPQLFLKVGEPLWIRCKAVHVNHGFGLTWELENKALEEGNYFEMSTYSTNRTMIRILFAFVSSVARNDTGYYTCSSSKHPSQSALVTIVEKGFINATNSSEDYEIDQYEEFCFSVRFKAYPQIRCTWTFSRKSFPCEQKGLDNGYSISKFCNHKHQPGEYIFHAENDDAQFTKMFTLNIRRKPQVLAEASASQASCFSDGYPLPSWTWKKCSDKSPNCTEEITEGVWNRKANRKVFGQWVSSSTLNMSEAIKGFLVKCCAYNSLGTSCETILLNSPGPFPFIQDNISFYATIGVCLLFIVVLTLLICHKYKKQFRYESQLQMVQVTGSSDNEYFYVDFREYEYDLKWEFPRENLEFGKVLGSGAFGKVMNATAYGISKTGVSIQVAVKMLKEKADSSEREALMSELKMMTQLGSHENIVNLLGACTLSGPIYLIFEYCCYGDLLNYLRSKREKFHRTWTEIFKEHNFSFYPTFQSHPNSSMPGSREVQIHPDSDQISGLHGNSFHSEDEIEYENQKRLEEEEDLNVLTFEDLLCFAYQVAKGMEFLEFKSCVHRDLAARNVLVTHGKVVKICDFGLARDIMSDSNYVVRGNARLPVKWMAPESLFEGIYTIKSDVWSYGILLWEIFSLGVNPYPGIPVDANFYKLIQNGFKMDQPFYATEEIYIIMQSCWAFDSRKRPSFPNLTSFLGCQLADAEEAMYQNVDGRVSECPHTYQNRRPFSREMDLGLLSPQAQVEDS
# [7] = molecular target: Tyrosine-protein kinase JAK2 (Homo sapiens) (UniProt O60674); assay: Inhibition of JAK2 (unknown origin) at 100 nM preincubated for 10 mins followed by substrate addition and measured after 60 mins in presence of ATP by ADP-Glo reagent based assay relative to control; conditions: time 70.0 min
# Sequence of Tyrosine-protein kinase JAK2 (Homo sapiens) (O60674 whole entry): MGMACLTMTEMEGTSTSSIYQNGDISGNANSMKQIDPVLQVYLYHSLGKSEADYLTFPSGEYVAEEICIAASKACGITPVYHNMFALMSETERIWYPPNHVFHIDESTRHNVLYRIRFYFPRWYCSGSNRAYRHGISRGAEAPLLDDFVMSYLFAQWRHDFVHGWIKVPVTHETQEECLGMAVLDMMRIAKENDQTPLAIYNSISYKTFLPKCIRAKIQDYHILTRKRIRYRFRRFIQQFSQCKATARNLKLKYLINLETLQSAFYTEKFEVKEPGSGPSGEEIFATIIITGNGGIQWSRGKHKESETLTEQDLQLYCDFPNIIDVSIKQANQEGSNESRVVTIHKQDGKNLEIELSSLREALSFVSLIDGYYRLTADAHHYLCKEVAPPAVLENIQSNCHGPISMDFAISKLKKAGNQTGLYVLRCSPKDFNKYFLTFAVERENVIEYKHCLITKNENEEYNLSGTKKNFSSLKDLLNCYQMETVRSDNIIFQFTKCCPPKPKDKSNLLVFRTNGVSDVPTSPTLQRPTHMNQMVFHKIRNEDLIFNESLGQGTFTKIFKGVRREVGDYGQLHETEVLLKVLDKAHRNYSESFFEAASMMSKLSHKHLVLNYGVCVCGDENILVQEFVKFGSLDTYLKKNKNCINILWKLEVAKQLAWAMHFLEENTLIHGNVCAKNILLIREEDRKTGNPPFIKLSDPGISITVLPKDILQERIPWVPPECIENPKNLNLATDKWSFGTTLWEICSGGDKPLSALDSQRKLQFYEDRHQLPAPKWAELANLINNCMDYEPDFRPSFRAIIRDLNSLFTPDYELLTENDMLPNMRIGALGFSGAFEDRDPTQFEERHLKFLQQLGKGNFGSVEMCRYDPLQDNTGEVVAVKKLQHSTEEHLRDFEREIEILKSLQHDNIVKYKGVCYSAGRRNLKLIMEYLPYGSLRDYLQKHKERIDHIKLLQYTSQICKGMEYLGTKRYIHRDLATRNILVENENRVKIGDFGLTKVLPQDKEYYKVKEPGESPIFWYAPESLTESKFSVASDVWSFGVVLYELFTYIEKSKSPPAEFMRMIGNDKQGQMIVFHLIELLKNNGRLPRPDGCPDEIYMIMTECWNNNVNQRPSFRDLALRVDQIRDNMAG
# [8] = Induction of apoptosis in human Osimertinib-resistant NCI-H1975 cell assessed as viable cells at 500 nM measured after 16 hrs by Annexin V-FITC and PI staining based analysis (reference value: 94.9%); format: functional; conditions: read-out: Activity
# [9] = Induction of apoptosis in human Osimertinib-resistant NCI-H1975 cell assessed as late apoptotic cells at 500 nM measured after 16 hrs by Annexin V-FITC and PI staining based analysis (reference value: 2.84%); format: functional
# [10] = Induction of apoptosis in human Osimertinib-resistant NCI-H1975 cell assessed as early apoptotic cells at 500 nM measured after 16 hrs by Annexin V-FITC and PI staining based analysis (reference value: 1.78%); format: functional
# [11] = Antiproliferative activity against human Osimertinib-resistant NCI-H1975 cell incubated for 72 hrs by MTT assay; format: functional, cell-based; conditions: NCI-H1975, 72 h
# [12] = Induction of apoptosis in human Osimertinib-resistant NCI-H1975 cell assessed as necrotic cells at 500 nM measured after 16 hrs by Annexin V-FITC and PI staining based analysis (reference value: 0.50%); format: functional
# [13] = Induction of apoptosis in human Osimertinib-resistant NCI-H1975 cell assessed as viable cells at 2000 nM measured after 16 hrs by Annexin V-FITC and PI staining based analysis (reference value: 94.9%); format: functional; conditions: read-out: Activity
# [14] = Induction of apoptosis in human Osimertinib-resistant NCI-H1975 cell assessed as early apoptotic cells at 2000 nM measured after 16 hrs by Annexin V-FITC and PI staining based analysis (reference value: 1.78%); format: functional
# [15] = Induction of apoptosis in human Osimertinib-resistant NCI-H1975 cell assessed as necrotic cells at 2000 nM measured after 16 hrs by Annexin V-FITC and PI staining based analysis (reference value: 0.50%); format: functional
# cells = conditions: Homo sapiens, Osimertinib-resistant HCC827AR cell, 72 h
# [16] = Induction of apoptosis in human Osimertinib-resistant NCI-H1975 cell assessed as late apoptotic cells at 2000 nM measured after 16 hrs by Annexin V-FITC and PI staining based analysis (reference value: 2.84%); format: functional
# NCI-H1975 [17] = assay: Downregulation of Mcl-1 level in human Osimertinib-resistant NCI-H1975 cell at 2 uM measured after 8 hrs by Western blotting analysis; format: functional, cell-based
# NCI-H1975 [18] = assay: Downregulation of Mcl-1 level in human NCI-H1975 cells measured after 8 hrs by Western blotting analysis; format: functional, cell-based; conditions: dose <= 0.5 µM
# [19] = Antiproliferative activity against human Osimertinib-resistant NCI-H1975 cell assessed as cell growth inhibition at 125 nM incubated for 72 hrs by MTT assay relative to control; format: functional; design: scale not given: the % may be the effect or the level left
# [20] = Induction of apoptosis in human Osimertinib-resistant NCI-H1975 cell assessed as early apoptotic cells at 125 nM measured after 16 hrs by Annexin V-FITC and PI staining based analysis (Rvb =1.78%); format: functional
# [21] = system: Osimertinib-resistant HCC827AR cell; assay: Downregulation of Mcl-1 level in human Osimertinib-resistant HCC827 cell at upto 0.5 uM measured after 8 hrs by Western blotting analysis; format: functional, cell-based
# [22] = Induction of apoptosis in human Osimertinib-resistant NCI-H1975 cell assessed as necrotic cells at 125 nM measured after 16 hrs by Annexin V-FITC and PI staining based analysis (reference value: 0.50%); format: functional
# HCC827 [23] = assay: Downregulation of Mcl-1 level in human HCC827 cells measured after 8 hrs by Western blotting analysis; format: functional, cell-based; conditions: dose <= 0.5 µM
# [24] = Induction of apoptosis in human Osimertinib-resistant NCI-H1975 cell assessed as viable cells at 125 nM measured after 16 hrs by Annexin V-FITC and PI staining based analysis (reference value: 94.9%); format: functional; conditions: read-out: Activity
# NCI-H1975 [25] = assay: Downregulation of Mcl-1 level in human Osimertinib-resistant NCI-H1975 cell at upto 0.5 uM measured after 8 hrs by Western blotting analysis; format: functional, cell-based
# [26] = Induction of apoptosis in human Osimertinib-resistant NCI-H1975 cell assessed as late apoptotic cells at 125 nM measured after 16 hrs by Annexin V-FITC and PI staining based analysis (Rvb =2.84%); format: functional
SMILES,Activity [1],IC50 (HCC827 [4]),IC50 (NCI-H1975 [5]),IC50 (CDK2/Cyclin A2),IC50 (CDK9/cyclin T1),other results
O=C(c1ccc2cc1OCCCCOc1cc(ccc1F)-c1nc(ncc1F)N2)N1CCCNCC1,-27%,1.94 µM,1.18 µM,,,inhibition [2]: 21.2%; inhibition [3]: 27%
O=C(NC1CCCNCC1)c1ccc2cc1OCCCCOc1cc(ccc1F)-c1nc(ncc1F)N2 (stereo unspecified),21.1%,0.403 µM,0.116 µM,0.0543 µM,0.0031 µM,
O=C(c1ccc2cc1OCCCCOc1cc(ccc1F)-c1nc(ncc1F)N2)N1CCC(N2CCOCC2)CC1,-34%,4.78 µM,2.68 µM,,,inhibition [2]: 9.1%; inhibition [3]: 20.9%
O=C(NCCN1CCOCC1)c1ccc2cc1OCCCCCOc1cc(ccc1F)-c1nc(ncc1F)N2,73.4%,0.267 µM,0.115 µM,0.0662 µM,0.0011 µM,inhibition [6]: 62.8%; inhibition [7]: 56.5%
CN1CCC(NC(=O)c2ccc3cc2OCCCCCCOc2cc(ccc2F)-c2nc(ncc2F)N3)CC1,,,0.135 µM,0.0307 µM,0.0032 µM,
CN(C)CCNC(=O)c1ccc2cc1OCCCCOc1cc(ccc1F)-c1nc(ncc1F)N2,82.6%,0.031 µM,0.026 µM,0.0032 µM,0.0011 µM,
COc1cc(F)ccc1-c1ncnc(Nc2cccc(C[S@](C)(=N)=O)c2)n1 [ATUVECICLIB],,,,,,viability at 0.5 µM [8]: 91.3%; Activity [9]: 4.49%; Activity [10]: 3.16%; IC50 [11]: 1.08 µM; Activity [12]: 1.06%; viability at 2 µM [13]: 91.9%; Activity [14]: 2.58%; Activity [15]: 1.84%; IC50 (cells): 0.99 µM; Activity [16]: 3.66%; Activity (NCI-H1975 [17]): Active
O=C(NCCN1CCOCC1)c1ccc2cc1OCCOCCOc1cc(ccc1F)-c1nc(ncc1F)N2,,0.052 µM,0.054 µM,0.01 µM,0.0021 µM,inhibition [6]: 68.7%; inhibition [7]: 71.4%
O=C(c1ccc2cc1OCCCCOc1cc(ccc1F)-c1nc(ncc1F)N2)N1CCNCC1,,2.47 µM,1.05 µM,,,inhibition [2]: 32.9%; inhibition [3]: 45.7%
O=C(NC1CCC(N2CCOCC2)CC1)c1ccc2cc1OCCCCCCOc1cc(ccc1F)-c1nc(ncc1F)N2 (stereo unspecified),64.6%,0.421 µM,0.814 µM,0.715 µM,0.002 µM,
C=CC(=O)Nc1cc(Nc2nccc(-c3cn(C)c4ccccc34)n2)c(OC)cc1N(C)CCN(C)C [OSIMERTINIB],,0.057 µM,[…],,,Activity (NCI-H1975 [18]): Dose-Dependent Effect; IC50 [11]: 4.69 µM; Activity [19]: 10%; Activity [20]: 2.52%; Activity [21]: inactive; Activity [22]: 3.25%; Activity (HCC827 [23]): Dose-Dependent Effect; viability at 0.125 µM [24]: 92.4%; Activity (NCI-H1975 [25]): inactive; Activity [26]: 1.8%
COc1cc(F)ccc1-c1ncnc(Nc2ccc(C(=O)NCCN(C)C)cc2)n1,,340 µM,254 µM,0.024 µM,0.0031 µM,
O=C(NCCN1CCOCC1)c1ccc2cc1COCCCCOCc1cc(ccc1F)-c1nc(ncc1F)N2,,,0.613 µM,0.14 µM,0.0077 µM,
O=C(NC1CCN(C2CCOCC2)CC1)c1ccc2cc1OCCCCCCOc1cc(ccc1F)-c1nc(ncc1F)N2,54.4%,0.255 µM,0.373 µM,0.117 µM,0.0026 µM,
O=C(c1ccc2cc1OCCCCOc1cc(ccc1F)-c1nc(ncc1F)N2)N1CCC(N2CCOCC2)C1 (stereo unspecified),,5.17 µM,1.87 µM,,,inhibition [2]: 11.7%; inhibition [3]: 27.6%
O=C(NCC1CCNCC1)c1ccc2cc1OCCCCOc1cc(ccc1F)-c1nc(ncc1F)N2,1.6%,0.343 µM,0.336 µM,0.015 µM,0.0021 µM,
CN1CCN(CCNC(=O)c2ccc3cc2OCCCCCCOc2cc(ccc2F)-c2nc(ncc2F)N3)CC1,,,0.143 µM,0.0254 µM,0.0023 µM,
O=C(NC1CCOCC1)c1ccc2cc1OCCCCOc1cc(ccc1F)-c1nc(ncc1F)N2,99%,0.181 µM,0.283 µM,0.0951 µM,0.0028 µM,inhibition [6]: 60.9%; inhibition [7]: 73.2%
O=C(NCCN1CCOCC1)c1ccc2cc1OCCCCOc1cc(ccc1F)-c1nc(ncc1F)N2,95.6%,0.182 µM,0.021 µM,0.0342 µM,0.0009 µM,inhibition [6]: 77.3%; inhibition [7]: 79.7%
